Consider two compounds from patent publication US5411983A, “Certain hyrdoxy-phosphinyl-oxy-phenylmethyl-imidazolium hydroxide inner salts as PAF antagonists” (American Cyanamid Company, priority 1993, dated 1995).

Structures can show the parent of a compound that is named as a salt.

The test system of assay [1] is PAF induced vascular permeability change in mouse skin. In words: Inhibition of PAF induced vascular permeability change in mouse skin. The format is in vivo, mouse (Hilltop ICR). The following applies: ip, 0.5 h, test compound i.p., PAF i.d., read-out: Inhibition of Vascular Permeability Lesion (ED50 mg/kg). As for the experimental part: Inhibition of PAF Induced Vascular Permeability Change in Mouse Skin
The rationale for this test is similar to the coinjection test in guinea pigs; however, the test compound was given intraperitoneally rather than coinjected.
Test solutions were prepared as follows: An 80 μg portion of PAF was dissolved in 40 ml of saline to yield a concentration of 2000 ng/ml. A 10 mg portion of histamine diphosphate was dissolved in 100 ml of saline to yield a concentration 100 μg/ml. Test compounds were dissolved in saline and given intraperitoneally (20 mg/kg) 1/2 hour before intradermal challenge with PAF or histamine.
The animals used were Hilltop ICR mice, shaved on their flanks one day before use. The mice were randomly assigned to treated and control groups and were given test compound or saline 1/2 hour before challenge. Each mouse was injected via a tail vein with 0.25 ml of 0.05% Evans' blue dye immediately before the PAF or histamine intradermal injections were made (0.05 ml each), one per side.
Thirty minutes later the animals were killed and the lesions areas measured as described above. Lesion areas in treated animals were expressed as a percent of the control lesions and an ED50 (mg/kg) was calculated from an arcsine area vs. log dose transform.

The target of assay [2] is T1, PAF receptor (Oryctolagus cuniculus, UniProt G1TEI7). Kind of assay: Inhibition of PAF induced platelet aggregation in rabbit platelet rich plasma (PRP). The class given is cell-based, rabbit (male New Zealand White). Also on record: immediately centrifuged at 800 rpm for 10 minutes at room temperature to recover the platelet rich plasma (PRP); endogenous in cells; host or cells: rabbit platelets in platelet rich plasma (male New Zealand White rabbits). The following applies: for IC50: IC50 (M) PRP, inhibition of PAF-induced platelet aggregation, rabbit platelet rich plasma. The essentials:
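Citrated blood from unanesthetized male New Zealand White rabbits was centrifuged to obtain platelet rich plasma, adjusted with platelet poor plasma to 500,000 platelets/μl. In a 37° C. aggregometer, 400 μl PRP was preincubated 5 minutes with 50 μl test compound or PBS, then challenged with 50 μl PAF; aggregation was followed for 5 minutes by light transmission, giving IC50 and Ki values.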

Assay [3] has as its system PAF induced vascular permeability change in guinea pig skin.
Source text: Platelet Activating Factor (PAF) given intradermally, increases capillary permeability, and plasma proteins (e.g albumin) leak from the vascular space into the interstitial fluids of the skin. If the albumin has been previously stained with Evans' blue dye, the lesion area can be visualized as a blue spot in the .skin. A specific PAF antagonist inhibits the development of increased capillary permeability caused by PAF and reduces the leakage of proteins into the skin. Test compounds were evaluated for non-specific effects by monitoring their ability to inhibit or reduce a histamine induced increase in capillary permeability.
Test Solutions were prepared as follows: Evans' Blue Dye (Sigma E2129) was dissolved in saline to yield a 0.1% w/v solution. A 2 mg/ml stock chloroform solution of PAF (1-phosphotidyl, acetyl-O-alkyl; Sigma P9525) was diluted in saline to give final concentrations of 500 and 250 ng/ml. Saline dilutions were made fresh for each test. Histamine diphosphate solutions (Sigma H7375) were prepared by dissolving 10 mg in 100 ml of saline and diluting to 20 μg/ml with saline. Test compounds were dissolved in ethanol at 10 mg/ml and stored at -70° C. Injection mixtures were made by placing 10 μl of test compound solution into 1.0 ml of either the PAF solutions or the histamine solution.
The animals used were Hartley strain guinea pigs weighing 250-350 g, maintained with food and water ad libitum. The animals were shaved on their back and hind feet one day before use.
Each guinea pig was given an intravenous injection of 2 ml of Evans' blue dye solution into a foot vein. Immediately after, a series of six intradermal injections of 0.1 ml each were given, three on each side of the animal. They were: PAF 50 ng (0.1 ml of a 500 ng/ml solution); PAF 25 ng; and histamine diphosphate 2 μg. The left side injections contain 10 μg of test compound while the right side contain an equivalent amount of the ethanol vehicle to serve as a control.
Thirty minutes later the animals were killed by cervical dislocation and the skin reflected from the back. The lesion areas were approximated as the product of the largest diameter and normal diameter both in mm.
The target in assay [4] is T1, PAF receptor. Kind of assay: Inhibition of PAF induced platelet aggregation in washed rabbit platelets. The class given is cell-based. Also on record: In some experiments, washed platelets were used instead of PRP; endogenous in cells; host or cells: washed rabbit platelets. The following applies: for Ki: calculated from IC50, [PAF] and EC50; for IC50: challenge concentration of PAF 5E9M [sic]. The procedure: Platelet activating factor (PAF) compounds were evaluated as PAF receptor antagonists in vitro by measuring inhibition of PAF induced platelet aggregation. Platelet aggregation was measured by a modification of the method of A. Wissner, et. al., J. Med. Chem., 27, 1174, 1984.
Approximately 120-240 ml of blood were collected by cardiac puncture from unanesthetized male New Zealand White rabbits (Whaley's Summit View Farms, Belvedere, N.J.) with the use of 3.2% sodium citrate anticoagulant (1 part of citrate/10 parts of blood). All syringes and pipets were plastic. The blood was gently mixed and immediately centrifuged at 800 rpm for 10 minutes at room temperature to recover the platelet rich plasma (PRP). Platelet poor plasma (PPP) was prepared by centrifuging PRP at 2800 rpm for 10 minutes at room temperature.
Dilutions (1:3000) Of PRP in Isoton diluent were made and platelet counts were determined on a Coulter Thrombocounter which was standardized with platelet reference standards (Interscience Platelet Control, Portland, Oreg.). PRP platelet counts were adjusted to 500,000 platelets/μl by the addition of PPP.
L-PAF was obtained from Calbiochem. A stock solution of 1-2 E-3M was prepared in 10% ethanol in water and serial working dilutions were made using phosphate buffered saline (PBS). 1-2 E-3M stock solutions of test compounds were prepared in 100% methanol and serially diluted in PBS. All solutions were made up in plastic tubes, stored on ice and protected from heat and light. Solutions were prepared fresh or frozen at -20° C. and used within 48 hours.
Incubation mixtures consisted of 400 μl PRP, 50 μl of PBS diluent or test compound and 50 μl of PAF agonist. More specifically, 400 μl of PRP was stabilized in a cuvette for 1-2 minutes at 37° C. in the aggregometer to achieve a stable baseline, then 50 μl of PBS or test compound, was added and incubated for 5 minutes before addition of the challenge concentration of PAF ([…], as determined from the dose response curve for PAF for that experiment). Aggregation was monitored for 5 minutes. Samples containing test compound or diluent were run simultaneously for comparison. Test compounds were initially evaluated at a screening concentration of 1E-5M. Those producing ≥ 50% inhibition of the magnitude of aggregation were then reevaluated in a dose response fashion (final concentrations 1E-7M to 5E-5M) and IC50 values were determined. Ki values were also calculated in some cases from [formula] where Ki =inhibitory constant
IC50 =molar concentration of test compound which gives 50% inhibition
[PAF]=molar concentration of PAF used as challenges
EC50 =molar concentration of PAF which gives 50% of maximal aggregation.
The recording equipment consisted of single or dual channel Chronolog aggregometers connected to dual channel 10 MV full scale deflection Omniscribe chart recorders (Houston Instruments). […] The bead suspension was used to set the 0% light transmission mark and clear water was used to set the 100% light transmission mark. These limits defined a full scale deflection. The aggregation traces were analyzed by a digitizing method (C. Kohler and B. Zoltan, J. Pharm. Methods, 12, 113, 1984) with x, y coordinate data stored in a computer file. A suitable program computed parameters of interest such as the magnitude of aggregation.
In some experiments, washed platelets were used instead of PRP. Washed platelet suspensions were prepared as follows. PRP was centrifuged at 2800 rpm for 10 minutes to obtain PPP and a platelet pellet. The pellet was gently suspended and washed in calcium free, albumin free Tyrode's buffer, pH 6.3. The suspension was recentrifuged and the washed pellet was resuspended in normal Tyrodes', buffer (with calcium, but albumin free), pH 7.4. Platelet counts were adjusted to 500,00 platelets/μl.

The subject of the next assay is PAF induced lethality. In words: PAF induced lethality in the mouse. The following applies: ip, 1 h, mice, test compound i.p. 1/2 hour before PAF i.v., dose that protects 1/2 the animals, read-out: PAF induced Lethality PD50 (mg/kg I.P., 1/2 hour). The class given is in vivo, mouse (ICR). The procedure:
PAF Induced Lethality in the Mouse
Test compounds were evaluated for their ability to prevent death induced by an intravenous injection of a lethal dose of PAF.
ICR mice were given test compounds intraperitoneally as described under Inhibition of PAF Induced Vascular Permeability Change in Mouse Skin, 1/2 hour before an intravenous dose of 100 μg/kg PAF in saline. One hour later the number of dead mice were recorded. Protection was expressed as percent survivors in treated group/percent survivors in control group.

In general, Ki refers to the dissociation constant of the complex between target and ligand, obtained from inhibition or displacement. In general, IC50 refers to the midpoint of a concentration-inhibition curve. Low values mean greater potency, high ones weaker potency.

T1 sequence (G1TEI7 1-342): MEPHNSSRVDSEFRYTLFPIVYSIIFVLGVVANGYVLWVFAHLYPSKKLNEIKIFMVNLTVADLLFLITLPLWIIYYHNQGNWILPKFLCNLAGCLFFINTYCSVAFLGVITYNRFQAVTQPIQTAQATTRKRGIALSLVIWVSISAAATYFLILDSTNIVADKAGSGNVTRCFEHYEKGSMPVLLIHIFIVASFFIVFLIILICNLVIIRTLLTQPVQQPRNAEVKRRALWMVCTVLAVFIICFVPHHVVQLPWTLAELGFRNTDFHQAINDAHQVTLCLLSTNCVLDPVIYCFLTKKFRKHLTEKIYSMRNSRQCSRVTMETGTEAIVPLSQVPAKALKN

With `CCCCCCCCCCCCCCc1cccc(OCC(COP(=O)([O-])Oc2cccc(C[n+]3ccsc3)c2)OC)c1` (stereo not drawn) [[[3-[[3-[[Hydroxy[2-methoxy-3-(3-tetradecylphenoxy)propoxy]phosphinyl]oxy]phenyl]methyl]thiazolium, hydroxide, inner salt], the ED50 in assay [1] is 5.3 mg/kg; in the assay with PAF induced lethality, below 1.25 mg/kg. The figures for the Ki at PAF receptor [2] and on PAF receptor [4] were 210 nM and 1.4 nM, respectively. Besides, the IC50 on PAF receptor [2] (PAF challenge 1E-6M) came out at 4e-06 M; at PAF receptor [2] (PAF challenge 1E-7M) it was 9.5e-07 M; at PAF receptor [2] (PAF challenge 5E-8M), 8.1e-07 M; at PAF receptor [4], 9.5 nM. Also, the “Inhibition of Vascular Permeability Lesion (% of Control)” value in assay [3] is listed as 3.8 % of Control.
Turning to `CCCCCCCCCCCCCCCCOCC(COP(=O)([O-])Oc1cccc(C[n+]2ccsc2)c1)OC` (stereo not drawn) [3-[[3-[[[3-(Hexadecyloxy)-2-methoxypropoxy]hydroxyphosphinyl]oxy]phenyl]methyl]thiazolium, hydroxide, inner salt], the ED50 is 5.6 mg/kg in assay [1] and below 1.25 mg/kg in the assay with PAF induced lethality. In addition, the Ki on PAF receptor [2] is 490 nM; on PAF receptor [4], 8 nM. Moreover, the IC50 on PAF receptor [2] (PAF challenge 1E-6M) came out at 4.7e-05 M; against PAF receptor [2] (PAF challenge 1E-7M) it was 1e-06 M; against PAF receptor [2] (PAF challenge 5E-8M), 9.9e-07 M; at PAF receptor [4], 17 nM. Besides, the “Inhibition of Vascular Permeability Lesion (% of Control)” value in assay [3] is listed as 25 % of Control.
